Among the test systems are EKVX NSCLC; IGROV1 ovarian; OVCAR-3 ovarian; SF-539 CNS; SK-MEL-28 melanoma; SK-OV-3 ovarian; SN12C renal; UACC-62 melanoma; T-47D breast.
Common to all, as to test: DTP human tumour cell line panel, 48 h

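Step 1: Grow cells in 96-well plates. Step 2: Expose to compound for 48 hours at 5 concentrations. Step 3: Interpolate endpoints linearly; if unreached, use highest concentration. GI50: concentration for 50% inhibition of growth. Definition used: TGI = concentration required for complete inhibition of growth.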

Turning to `CC12CCC(=O)N1c1ccc([N+](=O)[O-])cc1N2` (stereo not drawn), the TGI with EKVX NSCLC, in the assay on IGROV1 ovarian, in the assay with OVCAR-3 ovarian, in the assay on SF-539 CNS, in the assay with SK-MEL-28 melanoma and with SK-OV-3 ovarian was greater than 100 µM each time. Moreover, the TGI in the assay on SN12C renal and in the assay on UACC-62 melanoma was greater than 100 µM each time.

Consider `NC(=O)NNC(=O)NC12CC3CC(CC(C3)C1)C2`, for which the TGI with EKVX NSCLC, in the assay with IGROV1 ovarian, in the assay with OVCAR-3 ovarian, in the assay with SF-539 CNS, with SK-MEL-28 melanoma and in the assay with SK-OV-3 ovarian was greater than 100 µM in each case. In addition, the TGI in the assay with SN12C renal and in the assay with UACC-62 melanoma was greater than 100 µM in each case.

Take `Cc1ccc(S(=O)(=O)N/N=C(/CC(=O)c2c(C)n([O-])c3ccccc3[n+]2=O)C(=O)Nc2ccccc2C)cc1`: the TGI in the assay on EKVX NSCLC, in the assay with IGROV1 ovarian, in the assay with OVCAR-3 ovarian, in the assay with SF-539 CNS, in the assay on SK-MEL-28 melanoma and in the assay with SK-OV-3 ovarian was greater than 100 µM each time. Besides, the TGI with SN12C renal and in the assay on UACC-62 melanoma was greater than 100 µM throughout.

On to `O=C(O)/C=C/c1nc2ccccc2c(=O)o1`, for which the concentration for total growth inhibition (TGI) in the assay on EKVX NSCLC, in the assay with IGROV1 ovarian, in the assay with OVCAR-3 ovarian, in the assay with SF-539 CNS, in the assay on SK-MEL-28 melanoma and with SK-OV-3 ovarian was greater than 100 µM throughout. Moreover, the concentration for total growth inhibition (TGI) in the assay with SN12C renal and in the assay on UACC-62 melanoma was greater than 100 µM each time.

Regarding `O=C(CC1SC(=Nc2ccccc2Cl)NC1=O)Nc1ccc(Cl)cc1Cl` (stereo not drawn), the concentration for total growth inhibition (TGI) with EKVX NSCLC, in the assay on IGROV1 ovarian, in the assay with OVCAR-3 ovarian, with SK-MEL-28 melanoma, with SN12C renal and with UACC-62 melanoma was greater than 100 µM each time.

`N#Cc1ccc(C=NC23CC4CC(CC(C4)C2)C3)cc1`: the TGI with EKVX NSCLC, in the assay with IGROV1 ovarian, with OVCAR-3 ovarian, in the assay on SF-539 CNS, in the assay with SK-MEL-28 melanoma and in the assay on SK-OV-3 ovarian was greater than 100 µM throughout. Further, the TGI in the assay with SN12C renal and in the assay on UACC-62 melanoma was greater than 100 µM throughout.

As to `COc1ccc(/C=C2\CCC(C)(CN(C)C)C2=O)cc1OC` (stereo not drawn), the TGI with EKVX NSCLC, in the assay with IGROV1 ovarian, in the assay with OVCAR-3 ovarian, in the assay on SF-539 CNS, with SK-MEL-28 melanoma and in the assay on SN12C renal was greater than 100 µM in each case. Also, the TGI in the assay on UACC-62 melanoma was greater than 100 µM.

Consider `CC(C)=CC(=O)N(C)C1C2CN3CCC(O2)C13` (stereo not drawn), for which the TGI with EKVX NSCLC, in the assay with IGROV1 ovarian, in the assay on OVCAR-3 ovarian, with SF-539 CNS, in the assay with SK-MEL-28 melanoma and in the assay on SK-OV-3 ovarian was greater than 100 µM throughout. For the same molecule, the TGI in the assay with SN12C renal and in the assay on UACC-62 melanoma was greater than 100 µM throughout.

For the molecule `Cc1ccc(NC(=O)CC2C(=O)Nc3ccccc3S2(=O)=O)c(C)c1` (stereo not drawn), the TGI in the assay on EKVX NSCLC was greater than 100 µM; in the assay with IGROV1 ovarian, 28.8 µM; with OVCAR-3 ovarian, 30.1 µM; with SF-539 CNS, 30.8 µM; in the assay on SK-MEL-28 melanoma it was 41.1 µM; in the assay with SN12C renal, 39.3 µM. The TGI with UACC-62 melanoma was 50.5 µM.

In the case of `CCOC(=O)/C(C#N)=C(O)/C(=C\c1ccc(Br)cc1)NC(=O)c1ccccc1`, the TGI in the assay with EKVX NSCLC, with IGROV1 ovarian, in the assay on OVCAR-3 ovarian, with SF-539 CNS, in the assay with SK-MEL-28 melanoma and in the assay with SK-OV-3 ovarian was greater than 100 µM throughout. Further, the TGI with SN12C renal and with UACC-62 melanoma was greater than 100 µM throughout.

Regarding `N#CC(c1ccccn1)c1nc2ccccc2[nH]1` (stereo not drawn), the TGI in the assay on EKVX NSCLC, with OVCAR-3 ovarian, in the assay with SK-MEL-28 melanoma, in the assay on SK-OV-3 ovarian, in the assay on SN12C renal and with UACC-62 melanoma was greater than 100 µM in each case.

As to `COc1cc2c(cc1OC)-c1ncc3c(OC)c(OC)c(OC)cc3c1C2`, the GI50 in the assay on OVCAR-3 ovarian is 0.529 µM; with SK-MEL-28 melanoma, greater than 100 µM; in the assay on SK-OV-3 ovarian, 18.9 µM; in the assay with T-47D breast, 40.8 µM; in the assay on UACC-62 melanoma, 3.84 µM. Besides, the TGI was 9.91 µM with OVCAR-3 ovarian; greater than 100 µM in the assay on SK-MEL-28 melanoma; 43.2 µM in the assay with SK-OV-3 ovarian; greater than 100 µM in the assay on T-47D breast; 25.6 µM in the assay on UACC-62 melanoma.

As for `C=CNC(=O)NC(=O)CSc1nnc(-c2ccccc2NC(=O)C(F)(F)F)c(=O)[nH]1`, the TGI with EKVX NSCLC, in the assay on IGROV1 ovarian, in the assay on OVCAR-3 ovarian, with SF-539 CNS, in the assay on SK-MEL-28 melanoma and with SK-OV-3 ovarian was greater than 100 µM in each case. Further, the TGI in the assay on SN12C renal and in the assay on UACC-62 melanoma was greater than 100 µM in each case.

As for `O=S(=O)(/C=C/C(=C/c1ccccc1)S(=O)(=O)c1ccccc1)c1ccccc1`, the TGI is 3.15 µM in the assay with EKVX NSCLC; 25 µM in the assay with IGROV1 ovarian; 3.13 µM with OVCAR-3 ovarian; 3.15 µM with SF-539 CNS; 2.8 µM in the assay on SK-MEL-28 melanoma; 2.79 µM in the assay on SK-OV-3 ovarian. The TGI in the assay on SN12C renal was 3.43 µM; in the assay with UACC-62 melanoma it was 3.85 µM.

Consider `NC(=O)C(=O)C1CCC2=C(Sc3ccccc3N2)C1=O` (stereo not drawn), for which the TGI in the assay with EKVX NSCLC, with IGROV1 ovarian, with OVCAR-3 ovarian, in the assay with SF-539 CNS, with SK-MEL-28 melanoma and with SK-OV-3 ovarian was greater than 100 µM throughout. In the assay with UACC-62 melanoma, the TGI is greater than 100 µM.

Consider `Cc1ccccc1NC(=O)C(=O)C(C#N)c1ccccc1C` (stereo not drawn), for which the TGI with EKVX NSCLC, in the assay on IGROV1 ovarian, in the assay with OVCAR-3 ovarian, in the assay with SF-539 CNS, in the assay on SK-MEL-28 melanoma and in the assay with SK-OV-3 ovarian was greater than 100 µM throughout. Further, the concentration for total growth inhibition (TGI) in the assay with SN12C renal and in the assay on UACC-62 melanoma was greater than 100 µM throughout.

With `O=c1[nH]cc(F)c(=O)n1C1OC(CO)C(O)C1O` (stereo not drawn), the concentration for total growth inhibition (TGI) with EKVX NSCLC, with OVCAR-3 ovarian, in the assay with SK-MEL-28 melanoma, with SK-OV-3 ovarian and with SN12C renal was greater than 100 µM each time.

The TGI is the concentration at which net growth stops. Higher therefore signals lower sensitivity of the cells. For orientation: GI50 means the concentration giving 50% growth inhibition.

These data come from PubChem BioAssay (NCI).
